Patent publication US5270339A, “Phenoxybenzene derivative” (Kanagafuchi Kagaku Kogyo Kabushiki Kaisha, priority 1991, dated 1993)

Assays:
[1] = test system: experimental amnesia in mice induced by cycloheximide; assay: Anti-amnesic effect: passive avoidance task (step-through), cycloheximide-induced amnesia; assay type: in vivo, ddY male mice; conditions: for Step-through latency: mean of group; for responders at 1 mg/kg / responders at 3 mg/kg: Mus musculus, mice with latency > 100 seconds, read-out: Ratio of memory
Description: (§1) As experimental animals, Wistar male rats and ddY male mice were used for the tests after they were housed for a week under every 12 hours' dark-light cycle at room temperature of 24° to 26° C.
The effect on experimental amnesia in mice induced by cycloheximide was evaluated.
The experiment was carried out using an experimental apparatus of passive avoidance task for mice (made by Ohara-ika-sangyo K. K.) comprising a box divided into the two compartments of dark and light. That is, the dark compartment [a box having a reverse trapezoid cross section (height: 8 cm, base line: 5 cm, oblique line: 9.5 cm) and having the length of 14 cm] was shield from a light with a black plastic case and was floored with stainless grids for giving an electrical shock so that an electricity might be turned on a determined time after interception of a photobeam placed in the dark compartment. The light compartment made of transparent plastic (a box of the same shape as that of the dark compartment having the length of 16 cm, lightened from a location spaced 25 cm above by a 60 W electric lamp) was provided adjacent to the dark compartment. Between the two compartments, there was provided a circular entrance having the diameter of 3 cm with a guillotine door which could be opened and closed. By using the above-mentioned dark-light box, the experiment was carried out according to the following procedure.
A mouse (5 week-old) previously conditioned in the dark-light box was put in the light compartment and the guillotine door was opened. Three seconds after the mouse moved into the dark compartment and interrupted the photobeam, 0.3 mA electrical shock was given to limbs for 3 seconds from the floor grid (aquisition trial). Just after the mouse rushed into the light compartment, the door was shut and the […] in the light compartment was picked out to return to his home cage. After 24 hours, the mouse was placed again in the light compartment and the period from the opening of the guillotine door to the time the mouse completely entered the dark compartment was recorded maximally 300 seconds as a step-through latency (retention trial).
The amnesia was induced by subcutaneous injection of cycloheximide (120 mg/kg) dissolved in saline 10 minutes before the aquisition trial. As a control, the same amount of saline alone was administered. […]
A ratio of number of mice showing the step-through latency of more than 100 seconds in the group was defined as a ratio of memory for convenience's sake.
The step-through latency in Table 2 was the mean value for each treated group.

[2] = Acute toxicity test, oral; assay type: in vivo, ddY male mice; conditions: mouse, in vivo, ddY mice, 2 weeks observation
Description: With respect to the compounds 1 to 86 shown in Table 1 as test compounds, the acute toxicity was examined using ddY mice according to the following method.
In each group, six male ddY mice weighing 27 to 30 g were employed. The compounds 1 to 86 suspended in an aqueous solution of 0.5% sodium carboxymethylcellulose were administered orally in a volume of 0.1 ml/10 g body weight. […] The LD50 (mg/kg) values were estimated from the ratio of the number of dead mice to the number of mice used.

[3] = test system: forced swimming test with rats (duration of immobility); assay: Antidepressant activity: forced swimming test using rats; assay type: in vivo, Wistar male rats; conditions: for Suppression of duration of immobility: vs saline; for Effect on duration of immobility (in words): oral administration
Description: as §1
That is, a rat (5 week-old) was placed into a glass cylinder having the inside diameter of 18 cm and the height of 40 cm which contained water (water temperature: 25° C.) up to its height of 15 cm. After 15 minutes, the rat was picked up followed by drying and then returned to his home cage. After 24 hours, the rat was again placed into the water in the same cylinder. The duration of immobility (the time rat kept motionless) was accumulatively measured with a stopwatch for five minutes (a five minutes' test). Each test compound was suspended in saline. The administration was carried out three times, at 24, 5 and 1 hour before the five minutes' test in case of an intraperitoneal administration or with only a single administration at 1 hour before the five minutes' test in case of an oral administration to examine the antidepressant effect.
The duration of immobility in Table 4 is the mean value for […] in each group. Suppression is expressed as a ratio in percentage of a reduction of the duration of immobility in the group administered with the test compound to that in the control group administered with saline alone.

[4] = p.o., 30 mg/kg, 1 hour before test

SMILES	Step-through latency ([1]; 1 mg/kg oral) [s]	responders at 1 mg/kg ([1]; 1 mg/kg oral) [%]	LD50 at 336 h [2] [mg/kg]	Step-through latency ([1]; 3 mg/kg oral) [s]	responders at 3 mg/kg ([1]; 3 mg/kg oral) [%]	further results
CCCCC1C(=Cc2cccc(Oc3ccccc3)c2)CCN1CC (centres unmarked) [Compound 79]	168	50	≥ 500			
CCC1C(=Cc2cccc(Oc3ccccc3)c2)CCN1CC (centres unmarked) [Compound 78]	132	75	≥ 500			
CN(C)CCCN1c2ccccc2CCc2ccccc21 [Imipramine, imipramine, reference compound]						Duration of immobility ([3]; i.p., 100 mg/kg/time, 24, 5 and 1 hour before test): 79 s; Suppression of duration of immobility ([3]; i.p., 100 mg/kg/time): 61%; Effect on duration of immobility (in words) [3]: no effect; Duration of immobility [3, 4]: 210 s; Suppression of duration of immobility ([3]; p.o., 30 mg/kg): -2%
CCOC1CC(=Cc2cccc(Oc3ccccc3)c2)C(=O)N1CC (centres unmarked) [Compound 57]			≥ 500	157	50	
CC(=O)CN1CCC(=Cc2cccc(Oc3ccccc3)c2)C1=O [Compound 45]	169	50	≥ 500			
COc1ccc(C(=O)N2CCC(=Cc3cccc(Oc4ccccc4)c3)C2=O)cc1 [Compound 43]			≥ 500	179	100	
COc1ccc(Oc2cccc(C=C3CCNC3=O)c2)cc1 [Compound 5]			≥ 500	134	50	
CCOC(=O)CN1CCC(=Cc2cccc(Oc3ccccc3)c2)C1=O [Compound 28]			≥ 500	100	50	
O=C1NC(CO)CC1=Cc1cccc(Oc2ccccc2)c1 (centres unmarked) [Compound 58]	111	50	≥ 500			
CCC1C(=Cc2cccc(Oc3ccccc3)c2)CCN1C(C)=O (centres unmarked) [Compound 80]	100	50	≥ 500			
O=C(C=Cc1ccccc1)N1CCC(=Cc2cccc(Oc3ccccc3)c2)C1=O [Compound 44]			≥ 500	132	38	
COC1CC(=Cc2cccc(Oc3ccccc3)c2)C(=O)N1 (centres unmarked) [Compound 55]			≥ 500	80	25	
S=C1NCCC1=Cc1cccc(Oc2ccccc2)c1 [Compound 86]			≥ 500	70	25	
CCOC1CC(=Cc2cccc(Oc3ccccc3)c2)C(=O)N1 (centres unmarked) [Compound 56]			≥ 500	129	63	
O=C1C(=Cc2cccc(Oc3ccccc3)c2)CCN1Cc1ccccc1 [Compound 48]			≥ 500	117	63	
CCN1CCC(Cc2cccc(Oc3ccccc3)c2)C1 (centres unmarked) [Compound 83]	188	100	≥ 500			
CCCCN1CCC(=Cc2cccc(Oc3ccccc3)c2)C1 [Compound 68]	179	75	≥ 500			
CC1CC(=Cc2cccc(Oc3ccccc3)c2)C(=O)N1 (centres unmarked) [Compound 52]			≥ 500	120	50	
Nc1cc(C=C2CCNC2=O)ccc1Oc1ccccc1 [Compound 8]			≥ 500	118	38	
O=C1C(=Cc2cccc(Oc3ccccc3)c2)CCN1CCOC1CCCCO1 (centres unmarked) [Compound 24]			≥ 500	109	38	
O=C1NCCC1=Cc1ccccc1Oc1ccccc1 [Compound 3]			≥ 500	173	75	

SMILES	Step-through latency ([1]; 1 mg/kg oral) [s]	responders at 1 mg/kg ([1]; 1 mg/kg oral) [%]	LD50 at 336 h [2] [mg/kg]	Step-through latency ([1]; 3 mg/kg oral) [s]	responders at 3 mg/kg ([1]; 3 mg/kg oral) [%]	further results
CN(C)CCNC(=O)CN1CCC(=Cc2cccc(Oc3ccccc3)c2)C1=O [Compound 36]	163	75	≥ 500			
OCCN1CCC(=Cc2cccc(Oc3ccccc3)c2)C1 [Compound 71]	212	75	≥ 500			
CCCCN1CCC(=Cc2cccc(Oc3ccccc3)c2)C1=O [Compound 12]			≥ 500	152	63	
CCN1CCC(=Cc2cccc(Oc3ccc(C)cc3)c2)C1 [Compound 19]	177	75	≥ 500			
CN(C)CCN1CCC(=Cc2cccc(Oc3ccccc3)c2)C1=O [Compound 40]	116	50	≥ 500			
C#CCN(C)Cc1ccccc1 [Pargyline, pargyline, reference compound]						Effect on duration of immobility (in words) [3]: prolongation of the duration of immobility; Duration of immobility [3, 4]: 244 s; Suppression of duration of immobility ([3]; p.o., 30 mg/kg): -19%
O=C1NCCC1=Cc1ccc(Oc2ccccc2)c([N+](=O)[O-])c1 [Compound 7]			≥ 500	113	50	
CCN1CCC(=Cc2ccc(Oc3ccccc3)cc2)C1=O [Compound 14]			≥ 500	100	25	
O=C1NCCC1Cc1cccc(Oc2ccccc2)c1 (centres unmarked) [Compound 81]	70	25	≥ 500			
CCN1C(=O)C(=Cc2cccc(Oc3ccccc3)c2)CC1C (centres unmarked) [Compound 53]			≥ 500	114	50	
COc1ccc(CN2CCC(=Cc3cccc(Oc4ccccc4)c3)C2=O)cc1 [Compound 49]	102	50	≥ 500			
CCCCCCN1CCC(=Cc2cccc(Oc3ccccc3)c2)C1=O [Compound 13]			≥ 500	132	38	
CN(C)C(=O)CN1CCC(=Cc2cccc(Oc3ccccc3)c2)C1=O [Compound 35]	103	50	≥ 500			
CCN1CCC(Cc2cccc(Oc3ccccc3)c2)C1=O (centres unmarked) [Compound 82]			≥ 500	102	38	
N#CCN1CCC(=Cc2cccc(Oc3ccccc3)c2)C1=O [Compound 37]	110	50	≥ 500			
O=C1C(=Cc2cccc(Oc3ccccc3)c2)CCN1Cc1ccc(Cl)cc1 [Compound 50]			≥ 500	100	50	
CC(=O)N1CCC(=Cc2cccc(Oc3ccccc3)c2)C1=O [Compound 41]			≥ 500	80	25	
O=C1NCCC1=Cc1ccc(Oc2ccccc2)cc1 [Compound 2]			≥ 500	188	75	
CC(=O)N1CCC(=Cc2cccc(Oc3ccccc3)c2)C1 [Compound 74]	107	50	≥ 500			
CN1CCC(=Cc2cccc(Oc3ccccc3)c2)C1=O [Compound 9]			≥ 500	151	75	
